The values that follow come from patent publication US20250179429A1, “CELL CULTURE MEDIUM” (Auckland UniServices Limited, priority 2017, published 2025).

In assay [1] the test system is Human primary keratinocytes. Nature of the assay: Keratinocyte growth in culture media: rhodamine B staining, confluency measured with Operetta plate reader. The class given is cell-based. To be noted: for effect of ROCK inhibitor on keratinocyte growth, FIG. 3: Y27632 10 μm vs SB772077B 400 nM in Base, Kelch's or Green's medium, 3 donors; for effect of Y27632 on keratinocyte growth, FIG. 5: 8 days.

The next assay deals with epidermal cells. Description: Greens, Cellntech, S7, EDGS medium comparison (rhodamine B, confluency score 0 to 4). It is filed as cell-based. Conditions: added to Green's medium with MEFs and commercial keratinocyte growth media. How it is done: Epidermal cells were grown in Greens medium with MEFs, CnT Prime, Epilife medium supplemented with S7 or EDGS. All media were tested with and without ROCK inhibitor Y27632. 550,000 epidermal cells were grown in each medium until one sample reached 80% confluence, at this point all samples were fixed and stained for rhodamine B. Sample confluency was then assigned a score between 0 and 4, 0 having no cells, and 4 having maximum confluency. N=2.
Flasks were pre-coated with a coating matrix for S7 and EDGS supplemented Epilife medium samples. 1.7 ml of dilution buffer was added to each T25 flask. Then 17 μl of coating matrix was added. The mixture was incubated at room temperature for 30 minutes. Next, the dilution buffer and coating matrix mix were removed from the flasks before adding cells and media.
550,000 epidermal cells and 5 ml of each required medium was added, with or without 10 μl Y27632, to a T25 flask. The flask was incubated at 37° C. with 5% CO2 until one sample reached 80% confluency.
Next, the medium was removed from the flasks and the cells fixed with 4% formaldehyde for 30 minutes. 1% rhodamine B solution was added and the cells incubated at room temperature for 10 minutes. The rhodamine B solution was removed and the cells thoroughly rinsed with water. Finally, all liquid from the flasks was removed using a pipette. The cells were imaged and confluency was calculated.

Where [2] appears, read: Green's media + Y27632, MEFs not present.

“Also recorded” adds a separate entry of the source. Counter-ions that a name gives are not always drawn. Like-named read-outs stand apart in the source and are kept apart here.

As to `CCn1c(-c2nonc2N)nc2cncc(C(=O)N3CC[C@H](N)C3)c21` [SB772077B, (3S)-1-[[2-(4-Amino-1,2,5-oxadiazol-3-yl)-1-ethyl-1H-imidazo[4,5-c]pyridin-7-yl]carbonyl]-3-pyrrolidinamine dihydrochloride, reference compound], the “ROCK inhibitor concentration to achieve the same effect (enhancing keratinocyte growth rates)” value in assay [1] (SB 772077B vs Y27632) is on record as approximately 400 nm. In addition, the “effect of ROCK inhibitor on keratinocyte growth, FIG. 3” value in assay [1] (dihydrochloride) is on record as “comparable effects on keratinocyte growth; also recorded: can be used as substitute for Y27632 for keratinocyte growth”.
On to `C[C@@H](N)[C@H]1CC[C@H](C(=O)Nc2ccncc2)CC1` [Y27632, reference compound], for which the “effect of ROCK inhibitor on keratinocyte growth, FIG. 3” value in assay [1] is given as “comparable effects on keratinocyte growth”. Moreover, the “ROCK inhibitor concentration to achieve the same effect (enhancing keratinocyte growth rates)” value in assay [1] (Y27632 vs SB 772077B) is given as 10 μm. The “effect of Y27632 on keratinocyte growth, FIG. 5” value in assay [1] (added to Green's medium with MEFs) is “can enhance growth of keratinocytes”; in assay [1] (added to serum-free Optipeak media), “enhanced growth of keratinocytes; also recorded: a few colonies started to develop”. For the same compound, the “effect of Y27632 on keratinocyte growth, FIG. 6” value in the assay on epidermal cells was “may also enhance growth of keratinocytes in other keratinocyte growth media; also recorded: enhanced keratinocyte growth in Green's medium, S7 medium and CnT Prime medium”.
Turning to `Nc1ncnc2nc[nH]c12` [adenine], in assay [1] (setting [2]), the “effect on keratinocyte growth of leaving one component out of Green's media, FIG. 1” value (from here on “effect on keratinocyte growth”) was “appears to enhance growth of keratinocytes”.
Consider “EGF: epidermal growth factor, component of Green's medium at 10 ng/ml (NSDSECPLSHDGYCLHDGVCMYIEALDKYACNCVVGYIGERCQYRDLKWWELR; Epidermal growth factor; UniProt P01133 971-1023, looked up)”, for which the “effect on keratinocyte growth” value in assay [1] (setting [2]) is reported as “important components of Green's medium in generating keratinocyte proliferation; also recorded: negatively affect keratinocyte growth”. Besides, the “effect of EGF on keratinocyte growth (later finding)” value in assay [1] (data not shown) is on record as “not enhancing keratinocyte growth”.
As to choleratoxin, the “effect on keratinocyte growth” value in assay [1] was “important components of Green's medium in generating keratinocyte proliferation; also recorded: negatively affect keratinocyte growth; also recorded: one of the most important single ingredients of Green's media”.
